Here are results for two molecules from patent US12295930B2, “Inducing proliferation of cardiomyocytes and therapeutic uses related thereto” (Emory University, priority 2018, dated 2025).

SMILES strings stand for the structures.

Assay [1] deals with ventricular cardiomyocytes. The assay can be described thus: Ventricular cardiomyocyte numbers after T3/metoprolol therapy in adult mice. In kind it is in vivo, mouse. The note with it: adult 6-month-old mice; metoprolol 6 μg/g daily i.p. 19 days and/or T3 2 ng/g i.p. 5 daily injections; 2 weeks after cessation. From the text:
Digestion efficiencies were ˜98%. Cardiomyocytes in these cell suspensions, identified by their size and by rod shape, were counted using a hemocytometer. […]

The next assay relates to adult murine heart. The assay can be described thus: Transthoracic echocardiography after T3/β1-adrenergic receptor blocker therapy. The assay is classed as in vivo, mouse. The note with it: for Ejection fraction / FW diastole / FW systole / Fractional shortening / IVS diastole / IVS systole / LV end-diastolic dimension / LV end-systolic dimension / LV mass: adult 6-month-old mice, metoprolol 6 μg/g daily i.p. 19 days and/or T3 2 ng/g i.p. 5 daily injections, 2 weeks after cessation. Here is the method:
Approximately 6-month-old mice were used. […] On day-14 of this therapy, mice were additionally given 5 daily injections of T3 (2 ng/g, i.p.) or vehicle. At 2 and 4 weeks after the cessation of T3/β1-adrenergic receptor blocker mono- or combination therapy, the body weights of these mice were measured as well as their cardiac dimensions and function using transthoracic echocardiography.
Experiments were performed to determine whether reversal of cell cycle block using β1-blockade coupled with acute T3 treatment may be sufficient to expand the cardiomyocyte endowment of the adult murine heart. […] Two weeks after cessation of these therapies LV dimensions and contractility were analyzed by echocardiography as well as ventricular cardiomyocyte numbers.

For assay [2], the system named is ventricular cardiomyocytes. The assay can be described thus: Ventricular cardiomyocyte count in early post-neonatal mice after T3. In kind it is in vivo, mouse. How it is done:
To determine the effect of T3 on the ventricular cardiomyocyte population in early post-neonatal mice, T3 daily (i. p.), was administered from P7 to P9. At P12, hearts were enzymatically disaggregated and cell suspensions created from the cardiac ventricles. Digestion efficiencies were ˜98%. Cardiomyocytes in these cell suspensions, identified by their size and by rod shape, were counted using a hemocytometer. T3 increased ventricular cardiomyocyte numbers by ˜18% (FIG. 2D), which indicates an average replication rate of 3.6%/day between P7 and P12.

For assay [3], the system named is IGF-1/IGF-1R, MEK1/2, ERK1/2. The assay can be described thus: T3 proliferative signaling in P8 LV apical and basal cardiomyocytes (immunoblotting). The assay is classed as in vivo, mouse. How it is done: (§1) T3 was administered, intraperitoneally, to each mouse at the dose indicated. Vehicle was administered by the same route and animals thus treated served as controls. Phosphate buffered saline (PBS) was the vehicle for T3, and soybean oil (Sigma, S7381) was the vehicle for 4-hydroxytamoxifen. DUSP5 or β1-adrenergic receptor-specific siRNA or scrambled siRNA (control) was administered using in vivo-jetPEI®, (VWR, 89129-960). […] P7 and older mice were first anesthetized with 5% isoflurane and then hearts were harvested for further processing. Hearts were also collected at 12, 24 and 40 h after T3 or vehicle treatment and ventricular cardiomyocytes were prepared from the apex and base for immunoblotting, RT-qPCR or immunocytochemistry. Hearts were also collected at various ages after birth for immunoblotting, immunocytochemistry, immunohistochemistry and cardiomyocyte number estimation.
Proliferative signaling by growth factors involves Ras/Raf/mitogen-activated protein kinase (MAPK) kinase (MEK)/extracellular signal-regulated kinase (ERK) signaling. MEK1/2 activate ERK1/2 by phosphorylating T202 and Y204, which is required for ERK1/2 translocation to the nucleus. Sustained ERK1/2 phosphorylation in the nucleus activates multiple transcription factors ultimately resulting in effector protein synthesis and cell proliferation. A single dose of T3 was administered to P8 mice, and cardiomyocytes were isolated from the LV apex or base either immediately after T3 administration (0 h) or after 24 h. […] However, the fraction of nuclear ERK1/2 that remained phosphorylated at 24 h post-T3 treatment was ˜70% lower in LV basal cardiomyocytes (FIG. 4A).
In general terms: A western blot detects proteins with antibodies after separation by electrophoresis.

Assay [4] deals with LV cardiomyocytes. The note with it: T3 daily over 3 days (P7-P9); same mouse heart.
Source text: To determine if LV apical cardiomyocytes undergo cell replication, multicolor clonal analysis was used in double-transgenic Myh6-MerCreMer::Rosa26fs-Confetti mice to record the proliferative strategies of individual cardiomyocytes of the apex relative to those of the base.
The subject of assay [5] is LV cardiomyocytes. The assay can be described thus: Immunocytochemistry for S phase (EdU) and mitosis (pH3) after in vivo T3. The arrangement: species or system mouse. How it is done: as §1
Experiments were performed to determine whether T3-stimulated cell cycle entry in LV apical cardiomyocytes ends in mitosis and cell replication.

The next assay has as its system cyclins D1, A2 and B1. Briefly: Acute in vivo T3 challenge: cyclin expression by immunoblotting. More on the design: species or system mouse. Here is the method: as §1, with “4-hydroxytamoxifen.” for “4-hydroxytamoxifen. DUSP5 or β1-adrenergic receptor-specific siRNA or scrambled siRNA (control) was administered using in vivo-jetPEI®, (VWR, 89129-960).”
An acute in vivo T3 challenge was used to identify post-neonatal LV cardiomyocytes that retain proliferative capacity. Increases in myocardial cell cycle-promoting cyclins was explored as a surrogate for identifying cardiomyocytes that are able to enter the cell cycle.

Where [6] appears, read: LV apex cardiomyocytes, post-P8, in vivo T3.
Where [7] appears, read: LV basal cardiomyocytes, in vivo T3.

Take `COCCc1ccc(OCC(O)CNC(C)C)cc1` (stereo not drawn) [Metoprolol, metoprolol succinate]: in assay [1], the “Cardiomyocyte numbers, (millions) [n]” value is 2.44 ± 0.026 millions. In the assay with adult murine heart, the Ejection fraction worked out at 55.4 ± 1.8%, the FW diastole is on record as 0.92 ± 0.02 mm, the FW systole turned out to be 1.20 ± 0.03 mm and the Fractional shortening was determined as 23.4 ± 0.6%. Further, in the assay on adult murine heart, the IVS diastole amounted to 0.96 ± 0.02 mm, the IVS systole is given as 1.29 ± 0.02 mm, the LV end-diastolic dimension is listed as 3.53 ± 0.07 mm and the LV end-systolic dimension is recorded as 2.71 ± 0.06 mm. Besides, the LV mass in the assay on adult murine heart is listed as 113 ± 2 mg.

Take `N[C@@H](Cc1cc(I)c(Oc2ccc(O)c(I)c2)c(I)c1)C(=O)O` [T3, 3,3′,5-triiodo-L-thyronine]: the “increase in ventricular cardiomyocyte numbers” value in assay [2] (T3 daily i.p. P7 to P9, counted at P12) is ~18%. For the same molecule, the average replication rate in assay [2] (between P7 and P12) is listed as 3.6 %/day. The “fraction of nuclear ERK1/2 that remained phosphorylated, lower in LV basal cardiomyocytes” value in assay [3] (24 h post-T3 treatment, P8 mice, basal vs apical) is ~70%. Moreover, the “MEK1/2 phosphorylation and nuclear translocation of ERK1/2” value in assay [3] (P8 mice, single dose T3, 24 h, similarly in apical and basal cardiomyocytes) was “increased MEK1/2 phosphorylation”. Further, the “T3-stimulated expression of IGF-1/IGF-1R” value in assay [3] (post-neonatal basal vs apical cardiomyocytes) was “comparable in basal and apical cardiomyocytes”. Further, the “Cardiomyocyte numbers, (millions) [n]” value in assay [1] was 2.33 ± 0.039^NS millions. The “increase in frequency of monochromatic cardiomyocyte clusters in the LV apex relative to the base” value with LV cardiomyocytes [4] is recorded as ~6.5 fold. Besides, in the assay with LV cardiomyocytes [5] (setting [6]), the “number of cardiomyocytes in S phase (EdU+)” value is “increased the number of cardiomyocytes in S phase” and the “number of cardiomyocytes in mitosis (pH3+)” value is on record as “increased”. Moreover, in the assay on LV cardiomyocytes [5] (setting [7]), the “S phase in LV basal cardiomyocytes” value is given as “an increase in S phase was observed” and the “mitosis in LV basal cardiomyocytes” value was “did not enter mitosis”. Further, the “T3 increase of cyclins D1/A2/B1, more in apical than in basal cardiomyocytes” value in the assay with cyclins D1, A2 and B1 (P8 hearts, LV apical vs basal cardiomyocytes) was 2-5 fold. Besides, the “expression of cyclins D1, A2 and B1, higher in the LV apex than in the base” value with cyclins D1, A2 and B1 (P8 mice, 40 h after in vivo T3 challenge, LV myocardium) is recorded as 2.5-100 fold. The “T3 effect on cyclins in apical or basal cardiomyocytes” value with cyclins D1, A2 and B1 (P16 cardiomyocytes) is recorded as “did not increase cyclins”. In the assay with cyclins D1, A2 and B1 (neonatal hearts), the “T3 effect on cyclins D1/A2/B1 in LV apical and basal cardiomyocytes” value is “increased cyclins D1/A2/B1 similarly in LV apical and basal cardiomyocytes”. In the assay with cyclins D1, A2 and B1 (post-neonatal basal vs apical cardiomyocytes, 40 h after T3), the “T3-stimulated expression of cyclins D1, A2 and B1, lower in basal cardiomyocytes” value was 2-3 fold. Moreover, in the assay on adult murine heart, the Ejection fraction is recorded as 55.7 ± 1.4^NS %, the FW diastole is 0.87 ± 0.01^NS mm, the FW systole is 1.19 ± 0.03^NS mm and the Fractional shortening is reported as 24.8 ± 1.4^NS %. Also, in the assay with adult murine heart, the IVS diastole is given as 0.94 ± 0.01^NS mm, the IVS systole is listed as 1.29 ± 0.02^NS mm, the LV end-diastolic dimension was 3.60 ± 0.03^NS mm and the LV end-systolic dimension is 2.70 ± 0.05^NS mm. Further, the LV mass with adult murine heart is reported as 110 ± 2^NS mg. Besides, the “effect on body weight, ventricular cardiomyocyte numbers, LV mass or any measured LV dimension” value in the assay with adult murine heart (vehicle pretreated adult mice) is on record as “did not significantly affect”.
